Measured values: ChEMBL document CHEMBL5260817, “Polyamine-based analogs and conjugates as antikinetoplastid agents” (Eur J Med Chem, 2017)
pIC50, pKi: −log10 of the molar value. Values belong to the compound of their own block, whether it stands above or below them.

Columns and labels:
[1] = tested on: Leishmania donovani; experiment: Antiprotozoal activity against Leishmania donovani amastigotes assessed as growth inhibition measured after 7 days relative to control; assay type: functional; conditions: time 7 day
[2] = tested on: Trypanosoma brucei; experiment: Trypanocidal activity against Trypanosoma brucei K 243-As-10-3 strain; assay type: functional, organism-based
[3] = tested on: Trypanosoma brucei; experiment: Trypanocidal activity against Trypanosoma brucei K 269 strain; assay type: functional, organism-based
[4] = tested on: Trypanosoma brucei; experiment: Trypanocidal activity against Trypanosoma brucei K 243 strain; assay type: functional, organism-based
[5] = tested on: Trypanosoma brucei; experiment: Trypanocidal activity against Trypanosoma brucei Lab 110 strain; assay type: functional, organism-based
[6] = tested on: Trypanosoma cruzi; experiment: Antiprotozoal activity against Trypanosoma cruzi; assay type: functional, organism-based
[7] = target: T1, Trypanothione reductase (Trypanosoma cruzi, UniProt P28593); experiment: Inhibition of Trypanosoma cruzi TryR assessed as inhibition constant
[8] = target: Trypanothione reductase (Trypanosoma brucei brucei, UniProt P39051); experiment: Inhibition of Trypanosoma brucei TryR assessed as inhibition constant
[9] = target: T1, Trypanothione reductase; experiment: Inhibition of Trypanosoma cruzi TryR assessed as inhibition constant in presence of NADPH
[10] = tested on: Leishmania donovani; experiment: Antiprotozoal activity against Leishmania donovani promastigotes; assay type: functional, organism-based
[11] = tested on: Leishmania braziliensis; experiment: Antiprotozoal activity against Leishmania braziliensis MHOM/PE/84/LC26 amastigotes infected in mouse J774.2 cells measured after 72 hrs; assay type: functional, organism-based; conditions: J774.2, 72 h
[12] = target: Glutathione reductase, mitochondrial (Homo sapiens, UniProt P00390); experiment: Inhibition of human glutathione reductase
[13] = tested on: Leishmania donovani; experiment: Antiprotozoal activity against Leishmania donovani; assay type: functional, organism-based
[14] = tested on: Trypanosoma brucei rhodesiense; experiment: Antiprotozoal activity against Trypanosoma brucei rhodesiense; assay type: functional, organism-based
[15] = tested on: Trypanosoma brucei; experiment: Antiprotozoal activity against Trypanosoma brucei; assay type: functional, organism-based
[16] = Inhibition of TryR (unknown origin) assessed as inhibition constant; set-up: species or system Bacteria
[17] = tested on: Trypanosoma; experiment: Inhibition of Trypanosomal TryS at 10 uM relative to control
[18] = target: T1, Trypanothione reductase; experiment: Inhibition of Trypanosoma cruzi TryR
[19] = Inhibition of Trypanosoma brucei MetRS
[20] = tested on: Bacteria; experiment: Inhibition of TryR (unknown origin) at 10 uM relative to control
[21] = tested on: Leishmania donovani; experiment: Antiprotozoal activity against Leishmania donovani MHOM/SD/00/1S-2D strain promastigotes assessed as parasitic death; assay type: functional, organism-based
[22] = tested on: Leishmania donovani; experiment: Antiprotozoal activity against Leishmania donovani MHOM/SD/00/1S-2D strain promastigotes assessed as parasitic death at 10 uM relative to control; assay type: functional
[23] = tested on: Leishmania amazonensis; experiment: Antiprotozoal activity against Leishmania amazonensis promastigotes measured after 48 hrs by MTT assay; assay type: functional, organism-based
[24] = tested on: Trypanosoma cruzi; experiment: Antiprotozoal activity against Trypanosoma cruzi MG strain epimastigotes; assay type: functional, organism-based
[25] = tested on: Trypanosoma cruzi; experiment: Antiprotozoal activity against Trypanosoma cruzi JEM strain epimastigotes; assay type: functional, organism-based

Chain of Trypanothione reductase (Trypanosoma brucei brucei, UniProt P39051) (P39051 whole entry): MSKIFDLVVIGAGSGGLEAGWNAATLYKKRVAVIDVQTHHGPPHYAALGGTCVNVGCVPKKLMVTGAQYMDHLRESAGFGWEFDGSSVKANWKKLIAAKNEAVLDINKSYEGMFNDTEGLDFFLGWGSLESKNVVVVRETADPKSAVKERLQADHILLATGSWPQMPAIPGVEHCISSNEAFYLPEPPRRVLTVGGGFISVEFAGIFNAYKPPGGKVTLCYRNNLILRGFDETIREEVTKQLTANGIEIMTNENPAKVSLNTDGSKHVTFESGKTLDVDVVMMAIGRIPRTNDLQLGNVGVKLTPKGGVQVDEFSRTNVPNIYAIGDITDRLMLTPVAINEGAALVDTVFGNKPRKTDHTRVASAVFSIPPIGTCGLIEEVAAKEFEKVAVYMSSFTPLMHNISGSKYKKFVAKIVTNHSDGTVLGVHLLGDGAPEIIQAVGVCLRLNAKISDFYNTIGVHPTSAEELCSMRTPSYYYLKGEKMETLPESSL
T1 sequence (P28593 whole entry): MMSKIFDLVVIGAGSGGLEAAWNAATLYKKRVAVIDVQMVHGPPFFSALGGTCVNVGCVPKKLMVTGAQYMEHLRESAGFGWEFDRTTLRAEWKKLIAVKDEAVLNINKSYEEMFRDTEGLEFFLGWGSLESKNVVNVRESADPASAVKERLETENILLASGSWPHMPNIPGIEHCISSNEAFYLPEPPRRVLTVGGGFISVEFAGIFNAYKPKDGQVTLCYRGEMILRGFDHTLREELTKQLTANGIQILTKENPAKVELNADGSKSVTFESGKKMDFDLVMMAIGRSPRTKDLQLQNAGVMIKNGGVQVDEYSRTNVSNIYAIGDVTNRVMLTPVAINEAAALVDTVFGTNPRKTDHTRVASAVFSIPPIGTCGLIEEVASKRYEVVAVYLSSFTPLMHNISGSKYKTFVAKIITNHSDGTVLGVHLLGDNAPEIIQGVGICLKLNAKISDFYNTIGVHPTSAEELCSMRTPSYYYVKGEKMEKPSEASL
Chain of Glutathione reductase, mitochondrial (P00390 whole entry): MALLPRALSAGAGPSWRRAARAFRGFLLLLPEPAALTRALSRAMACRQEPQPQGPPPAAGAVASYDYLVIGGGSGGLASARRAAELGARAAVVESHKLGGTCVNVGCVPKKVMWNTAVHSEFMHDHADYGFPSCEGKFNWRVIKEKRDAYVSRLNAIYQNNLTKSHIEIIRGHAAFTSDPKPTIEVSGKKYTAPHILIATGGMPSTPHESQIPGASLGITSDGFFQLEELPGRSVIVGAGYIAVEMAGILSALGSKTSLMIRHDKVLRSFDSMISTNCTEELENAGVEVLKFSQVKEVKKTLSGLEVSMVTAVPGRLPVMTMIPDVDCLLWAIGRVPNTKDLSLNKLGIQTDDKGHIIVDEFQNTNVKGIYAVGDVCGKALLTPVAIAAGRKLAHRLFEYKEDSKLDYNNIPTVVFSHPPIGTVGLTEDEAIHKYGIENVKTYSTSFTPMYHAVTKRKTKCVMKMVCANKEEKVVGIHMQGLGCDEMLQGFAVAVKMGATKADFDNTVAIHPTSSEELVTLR

SMILES: CN1CCN(CCCNCCC#N)CC1
inhibition (INH) [1]: 80%

SMILES: c1ccc(CCCN(CCCCN(CCCc2ccccc2)CCCN(CCCc2ccccc2)CCCc2ccccc2)CCCN(CCCc2ccccc2)CCCc2ccccc2)cc1
pIC50 [2]: 4.70
pIC50 [3]: 4.70
pIC50 [4]: 4.70
pIC50 [5]: 4.70

SMILES: CCN(CCCCN1CN(C(CC(C)C)C(=O)O)CSC1=S)CCCN1CN(C(CC(C)C)C(=O)O)CSC1=S (centres undefined)
pIC50 [6]: 5.44

SMILES: O=C(NCCCCNCCCNC(=O)C(F)(F)F)C(F)(F)F
pKi [9]: < 2.70

SMILES: COc1cc(CN(CCCN)Cc2ccc(OCc3ccccc3)c(OC)c2)ccc1OCc1ccccc1
pIC50 [10]: > 6.00

SMILES: CN1CCN(CCC(=O)Nc2cc(Br)ccc2Sc2cccc(NC(=O)CCCC(=O)Nc3cccc(Sc4ccc(Br)cc4NC(=O)CCN4CCN(C)CC4)c3)c2)CC1
pIC50 [11]: 6.26

SMILES: NCCCCNCCCNC(=O)C(=O)c1c[nH]c2ccccc12
pIC50 [6]: < 4.40
pIC50 [13]: < 4.40
pIC50 [14]: < 4.40

SMILES: O=C(NCCCCNCCCNC(=O)c1cnc2cc(C(F)(F)F)ccc2c1O)c1cnc2cc(C(F)(F)F)ccc2c1O
pKi [16]: 6.07

SMILES: CNCCNC(=O)CN1C(=O)Cc2c([nH]c3ccc(Br)cc23)-c2ccccc21
inhibition [17]: 90%

SMILES: Fc1ccc2[nH]c(NCCCNCc3cc(Cl)cc(Cl)c3)nc2n1
pIC50 [19]: 9.00
pIC50 [15]: 8.40

SMILES: O=C(Cc1ccccc1)NCCCNCCCCNCCCNC(=O)Cc1ccccc1
pKi [8]: < 4.00

SMILES: NCCCCN(Cc1ccccc1)Cc1ccc(OCc2ccccc2)cc1
pIC50 [10]: > 6.00

SMILES: O=C(Cc1c[nH]c2ccccc12)NCCCCNCCCNC(=O)Cc1c[nH]c2ccccc12
inhibition [20]: 95%

SMILES: OCCn1c(CNCCCNc2nc3ccccc3[nH]2)cc2c(Cl)cc(Cl)cc21
pIC50 [19]: > 7.60
pIC50 [15]: 9.00

SMILES: Clc1cc(Cl)cc(CNCCCNc2nc3ncccc3[nH]2)c1
pIC50 [19]: 9.00
pIC50 [15]: 8.40

SMILES: Clc1cc(Cl)c2c(c1)[C@H](NCCCNc1nc3ncccc3[nH]1)CCN2
pIC50 [19]: 8.70
pIC50 [15]: 9.40

SMILES: CN1CCN(CCC(=N)Nc2cc(Cl)ccc2Sc2ccccc2)CC1
pIC50 [14]: 5.81

SMILES: COc1ccc2nc3cc(Cl)ccc3c(NCCCCN(CCCNc3c4ccc(Cl)cc4nc4ccc(OC)cc34)C(=O)[C@H](C)N)c2c1
pIC50 [21]: 6.00
inhibition at 10 µM [22]: 90%

SMILES: CC(C)=CCC/C(C)=C/CC/C(C)=C/CNCCN
pIC50 [23]: 4.77

SMILES: NCCCN(Cc1ccc(OCc2ccc(Br)cc2)cc1)Cc1ccc(OCc2ccc(Br)cc2)cc1
pIC50 [10]: > 6.00

SMILES: COc1cc(CN(CCCN)Cc2ccc(OCc3ccc(Br)cc3)c(OC)c2)ccc1OCc1ccc(Br)cc1
pIC50 [10]: > 6.00

SMILES: COc1ccc2nc3cc(Cl)ccc3c(NCCCCNCCCNc3c4ccc(Cl)cc4nc4ccc(OC)cc34)c2c1
pIC50 [21]: 6.00
inhibition at 10 µM [22]: 90%

Further lines, with some results ahead:

pKi [7]: < 4.00
SMILES: NCCCCN(CCCN)C(=O)OCc1ccccc1

pKi [8]: 4.72
SMILES: c1ccc(CNCCCNCCCCNCCCNCc2ccccc2)cc1

pKi [9]: < 2.70
SMILES: CC(=O)NCCCCNCCCNC(C)=O

pIC50 [12]: < 4.40
SMILES: CCCCN(CCCC)CCCNC(=O)CCCCC1=C(C)C(=O)c2ccccc2C1=O

pKi [7]: < 4.00
SMILES: NCCCCN(CCCN)Cc1ccccc1

pIC50 [15]: 6.00
SMILES: c1ccc(-c2cccc(CNCCCNCCCCCCCNCCCNCc3cccc(-c4ccccc4)c3)c2)cc1

pIC50 [18]: 6.70
SMILES: CCCCCCCCCCCCCC(=O)NCCCC(=O)N(CC(=O)Nc1cccc(Sc2ccc(Br)cc2NC(=O)CCN2CCN(C)CC2)c1)C(=O)Nc1ccccc1Sc1ccc(Br)cc1NC(=O)CCN1CCN(C)CC1

pKi [16]: 6.40
SMILES: CC(=O)c1ccc(Sc2ccccc2NCCCN(CCCN)CCCCN(CCCN)CCCNc2cc(Cl)ccc2Sc2ccc(C(C)=O)cc2)cc1

pKi [7]: < 4.00
SMILES: NCCCCN(CCCN)Cc1ccc2ccccc2c1

pIC50 [24]: < 4.72
pIC50 [25]: < 4.72
SMILES: CCCCCCCCCCCCCCC(N)CN (centres undefined)

pKi [8]: 5.52
SMILES: NCCCN(CCCCN(CCCN)CCCc1ccccc1)CCCc1ccccc1
pIC50 [2]: 6.30
pIC50 [3]: 6.30
pIC50 [4]: 6.30
pIC50 [5]: 6.30
